# Patent publication US8481540B2, “Inhibitors of bruton's tyrosine kinase” (Hoffmann-La Roche Inc., priority 2010, dated 2013)
# Read-outs that look alike come from different tables or passages of the source.
# Key:
# B cells in human blood = experiment: Inhibition of B cell activation in whole blood measured by CD69 expression; assay type: cell-based; details: read-out: Human Whole Blood
# Procedure, shortened: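 Heparinised human whole blood was preincubated with compound (nine-point, three-fold dilutions) for 30 min at 37 °C. It was then stimulated with 50 μg/ml goat F(ab′)2 anti-human IgM for 20 hours. CD20/CD69 staining, red-cell lysis and flow cytometry gave percent CD69-positive cells, from which IC50 values were calculated.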
# [1] = CD69-positive, CD20-positive cells after anti-IgM stimulation, human whole blood, 20 hours
IC50 (B cells in human blood; [1]) [µM],melting point [°C],SMILES,"IC50 (B cells in human blood; Homo sapiens, 20 h) [µM]"
0.019,229 to 233,"CCNC(C)(C)c1ccc(Nc2cc(-c3cccc(-n4ncc5cc(C(C)(C)C)cc(F)c5c4=O)c3CO)nn(C)c2=O)nc1 [I-1, 6-tert-butyl-2-(3-{5-[5-(1-ethylamino-1-methyl-ethyl)-pyridin-2-ylamino]-1-methyl-6-oxo-1,6-dihydro-pyridazin-3-yl}-2-hydroxymethyl-phenyl)-8-fluoro-2H-phthalazin-1-one]",–
0.122,140 to 142,"COC1CN(Cc2ccc(Nc3cc(-c4cccc(-n5ncc6cc(C(C)(C)C)cc(F)c6c5=O)c4CO)nn(C)c3=O)nc2)C1 [I-4, 6-tert-Butyl-8-fluoro-2-(2-hydroxymethyl-3-{5-[5-(3-methoxy-azetidin-1-ylmethyl)-pyridin-2-ylamino]-1-methyl-6-oxo-1,6-dihydro-pyridazin-3-yl}-phenyl)-2H-phthalazin-1-one]",–
0.031,136 to 144,"CN(C)CC(C)(C)Oc1ccc(Nc2cc(-c3cccc(-n4ncc5cc(C(C)(C)C)cc(F)c5c4=O)c3CO)nn(C)c2=O)nc1 [I-6, 6-tert-Butyl-2-(3-{5-[5-(2-dimethylamino-1,1-dimethyl-ethoxy)-pyridin-2-ylamino]-1-methyl-6-oxo-1,6-dihydro-pyridazin-3-yl}-2-hydroxymethyl-phenyl)-8-fluoro-2H-phthalazin-1-one]",–
0.02,160 to 163,"Cn1nc(-c2cccc(-n3ncc4cc(C(C)(C)C)cc(F)c4c3=O)c2CO)cc(Nc2ccc(CN3CCC3)cn2)c1=O [I-7, 2-{3-[5-(5-Azetidin-1-ylmethyl-pyridin-2-ylamino)-1-methyl-6-oxo-1,6-dihydro-pyridazin-3-yl]-2-hydroxymethyl-phenyl}-6-tert-butyl-8-fluoro-2H-phthalazin-1-one]",–
–,250 to 254,"Cn1nc(-c2cccc(-n3ncc4cc(C(C)(C)C)cc(F)c4c3=O)c2CO)cc(Nc2cnc(C(F)(F)F)cn2)c1=O [I-11, 6-tert-butyl-8-fluoro-2-{2-hydroxymethyl-3-[1-methyl-6-oxo-5-(5-trifluoromethyl-pyrazin-2-ylamino)-1,6-dihydro-pyridazin-3-yl]-phenyl}-2H-phthalazin-1-one]",–
–,185 to 190,"CN(C)CCOc1cnc(Nc2cc(-c3cccc(-n4ncc5cc(C(C)(C)C)cc(F)c5c4=O)c3CO)nn(C)c2=O)cn1 [I-36, 6-tert-Butyl-2-(3-{5-[5-(2-dimethylamino-ethoxy)-pyrazin-2-ylamino]-1-methyl-6-oxo-1,6-dihydro-pyridazin-3-yl}-2-hydroxymethyl-phenyl)-8-fluoro-2H-phthalazin-1-one]",–
–,218 to 224,"Cn1nc(-c2cccc(-n3ncc4cc(C(C)(C)C)cc(F)c4c3=O)c2CO)cc(Nc2cnc([C@H](O)CO)cn2)c1=O [I-57, 6-tert-Butyl-2-(3-{5-[5-((S)-1,2-dihydroxy-ethyl)-pyrazin-2-ylamino]-1-methyl-6-oxo-1,6-dihydro-pyridazin-3-yl}-2-hydroxymethyl-phenyl)-8-fluoro-2H-phthalazin-1-one]",–
0.18,–,"CN(C)C(=O)c1ccc(Nc2cc(-c3cccc(-n4ccc5cc(C(C)(C)C#N)cc(F)c5c4=O)c3CO)nn(C)c2=O)nc1 [I-75, 6-(6-{3-[6-(Cyano-dimethyl-methyl)-8-fluoro-1-oxo-1H-isoquinolin-2-yl]-2-hydroxymethyl-phenyl}-2-methyl-3-oxo-2,3-dihydro-pyridazin-4-ylamino)-N,N-dimethyl-nicotinamide]",–
0.051,–,"CN1CCC[C@H]1c1ccc(Nc2cc(-c3cccc(-n4ccc5cc(C(C)(C)C#N)cc(F)c5c4=O)c3CO)nn(C)c2=O)nc1 [I-76, 2-[8-Fluoro-2-(2-hydroxymethyl-3-{1-methyl-5-[5-((S)-1-methyl-pyrrolidin-2-yl)-pyridin-2-ylamino]-6-oxo-1,6-dihydro-pyridazin-3-yl}-phenyl)-1-oxo-1,2-dihydro-isoquinolin-6-yl]-2-methyl-propionitrile]",–
0.123,–,"CN1CC[C@@H](c2ccc(Nc3cc(-c4cccc(-n5ccc6cc(C(C)(C)C#N)cc(F)c6c5=O)c4CO)nn(C)c3=O)nc2)C1 [I-77, 2-[8-Fluoro-2-(2-hydroxymethyl-3-{1-methyl-5-[5-((S)-1-methyl-pyrrolidin-3-yl)-pyridin-2-ylamino]-6-oxo-1,6-dihydro-pyridazin-3-yl}-phenyl)-1-oxo-1,2-dihydro-isoquinolin-6-yl]-2-methyl-propionitrile]",–
0.084,–,"Cn1nc(-c2cccc(N3CCc4cc(C(C)(C)C#N)cc(F)c4C3=O)c2CO)cc(Nc2ccc(OC(C)(C)CN3CCC3)cn2)c1=O [I-78, 2-[2-(3-{5-[5-(2-azetidin-1-yl-1,1-dimethyl-ethoxy)-pyridin-2-ylamino]-1-methyl-6-oxo-1,6-dihydro-pyridazin-3-yl}-2-hydroxymethyl-phenyl)-8-fluoro-1-oxo-1,2,3,4-tetrahydro-isoquinolin-6-yl]-2-methyl-propionitrile]",–
0.06,–,"Cn1nc(-c2cccc(-n3ccc4cc(C(C)(C)C#N)cc(F)c4c3=O)c2CO)cc(Nc2cc3n(n2)CCN(C2COC2)C3)c1=O [I-79, 2-(8-Fluoro-2-{2-hydroxymethyl-3-[1-methyl-5-(5-oxetan-3-yl-4,5,6,7-tetrahydro-pyrazolo[1,5-a]pyrazin-2-ylamino)-6-oxo-1,6-dihydro-pyridazin-3-yl]-phenyl}-1-oxo-1,2-dihydro-isoquinolin-6-yl)-2-methyl-propionitrile]",–
0.041,–,"Cn1nc(-c2cccc(-n3ncc4cc(C(C)(C)C)cc(F)c4c3=O)c2CO)cc(Nc2ccc(C3CCN(C4COC4)CC3)cn2)c1=O [I-80, 6-tert-Butyl-8-fluoro-2-{2-hydroxymethyl-3-[1-methyl-5-(1′-oxetan-3-yl-1′,2′,3′,4′,5′,6′-hexahydro-[3,4]bipyridinyl-6-ylamino)-6-oxo-1,6-dihydro-pyridazin-3-yl]-phenyl}-2H-phthalazin-1-one]",–
0.017,–,"CCN1CCn2nc(Nc3cc(-c4cccc(-n5ncc6cc(C(C)(C)C)cc(F)c6c5=O)c4CO)nn(C)c3=O)cc2C1 [I-82, 6-tert-Butyl-2-{3-[5-(5-ethyl-4,5,6,7-tetrahydro-pyrazolo[1,5-a]pyrazin-2-ylamino)-1-methyl-6-oxo-1,6-dihydro-pyridazin-3-yl]-2-hydroxymethyl-phenyl}-8-fluoro-2H-phthalazin-1-one]",–
0.07,–,"CCN1CCn2nc(Nc3cc(-c4cccc(-n5ccc6cc(C(C)(C)C#N)cc(F)c6c5=O)c4CO)nn(C)c3=O)cc2C1 [I-83, 2-(2-{3-[5-(5-Ethyl-4,5,6,7-tetrahydro-pyrazolo[1,5-a]pyrazin-2-ylamino)-1-methyl-6-oxo-1,6-dihydro-pyridazin-3-yl]-2-hydroxymethyl-phenyl}-8-fluoro-1-oxo-1,2-dihydro-isoquinolin-6-yl)-2-methyl-propionitrile]",–
0.294,–,"Cn1nc(-c2cccc(-n3ncc4cc(C(C)(C)C)cc(F)c4c3=O)c2CO)cc(Nc2ccc(CN3CCC(C)(O)CC3)cn2)c1=O [I-85, 6-tert-Butyl-8-fluoro-2-(2-hydroxymethyl-3-{5-[5-(4-hydroxy-4-methyl-piperidin-1-ylmethyl)-pyridin-2-ylamino]-1-methyl-6-oxo-1,6-dihydro-pyridazin-3-yl}-phenyl)-2H-phthalazin-1-one]",–
0.408,–,"CCOC(=O)N1CCN(c2ccc(Nc3cc(-c4cccc(-n5ncc6cc(C(C)(C)C)cc(F)c6c5=O)c4CO)nn(C)c3=O)nc2)CC1 [I-86, 4-(6-{6-[3-(6-tert-Butyl-8-fluoro-1-oxo-1H-phthalazin-2-yl)-2-hydroxymethyl-phenyl]-2-methyl-3-oxo-2,3-dihydro-pyridazin-4-ylamino}-pyridin-3-yl)-piperazine-1-carboxylic acid ethyl ester]",–
0.455,–,"Cn1nc(-c2cccc(-n3ccc4cc(C(C)(C)CF)cc(F)c4c3=O)c2CO)cc(Nc2ccc(C(=O)N3CCOCC3)cn2)c1=O [I-87, 8-Fluoro-6-(2-fluoro-1,1-dimethyl-ethyl)-2-(2-hydroxymethyl-3-{1-methyl-5-[5-(morpholine-4-carbonyl)-pyridin-2-ylamino]-6-oxo-1,6-dihydro-pyridazin-3-yl}-phenyl)-2H-isoquinolin-1-one]",–
0.203,–,"CN1C[C@@H]2C[C@H]1CN2c1cnc(Nc2cc(-c3cccc(-n4ncc5cc(C(C)(C)C)cc(F)c5c4=O)c3CO)nn(C)c2=O)cn1 [I-88, 6-tert-Butyl-8-fluoro-2-(2-hydroxymethyl-3-{1-methyl-5-[5((1S,4S)-5-methyl-2,5-diaza-bicyclo[2.2.1]hept-2-yl)-pyrazin-2-ylamino]-6-oxo-1,6-dihydro-pyridazin-3-yl}-phenyl)-2H-phthalazin-1-one]",–
0.34,–,"Cn1nc(-c2cccc(-n3ncc4cc(C(C)(C)C)cc(F)c4c3=O)c2CO)cc(Nc2ccc(C3CCN(CC(F)(F)F)CC3)cn2)c1=O [I-90, 6-tert-butyl-8-fluoro-2-(2-hydroxymethyl-3-{1-methyl-6-oxo-5-[1′-(2,2,2-trifluoro-ethyl)-1′,2′,3′,4′,5′,6′-hexahydro-[3,4′]bipyridinyl-6-ylamino]-1,6-dihydro-pyridazin-3-yl}-phenyl)-2H-phthalazin-1-one]",–

SMILES,IC50 (B cells in human blood; [1]) [µM],melting point [°C],"IC50 (B cells in human blood; Homo sapiens, 20 h) [µM]"
"Cn1nc(-c2cccc(-n3ncc4cc(C(C)(C)C)cc(F)c4c3=O)c2CO)cc(Nc2ccc(S(C)(=O)=O)cn2)c1=O [I-3, 6-tert-Butyl-8-fluoro-2-[2-hydroxymethyl-3-[5-(5-methanesulfonyl-pyridin-2-ylamino)-1-methyl-6-oxo-1,6-dihydro-pyridazin-3-yl]-phenyl}-2H-phthalazin-1-one]",–,225 to 230,0.045
"CN1[C@@H]2CC[C@H]1CN(Cc1ccc(Nc3cc(-c4cccc(-n5ncc6cc(C(C)(C)C)cc(F)c6c5=O)c4CO)nn(C)c3=O)nc1)C2 [I-5, 6-tert-Butyl-8-fluoro-2-(2-hydroxymethyl-3-{1-methyl-5-[5-(8-methyl-3,8-diaza-bicyclo[3.2.1]oct-3-ylmethyl)-pyridin-2-ylamino]-6-oxo-1,6-dihydro-pyridazin-3-yl}-phenyl)-2H-phthalazin-1-one]",0.025,162 to 165,–
